Test results from patent US9125862B2, “Methods for the treatment of Prader-Willi-like syndrome or non-organic failure to thrive (NOFITT) feeding disorder using an agonist of the oxytocin receptor” (Institut National de la Sante et de la Rechereche Medicale …, priority 2010, dated 2015).

How the values were obtained:
[1] = test system: Magel2 KO neonates; experiment: Injection of oxytocin or vasopressin in Magel2 KO neonates: rescue of feeding and survival; type: in vivo, mouse; conditions: AVP injections, whatever the dose injected
Procedure: Three to 5 hours after delivery, wild type pups or pups issued from a cross between an heterozygote (+/−) male with wild type females were temporally removed (10 min) from their mother, weighted and given a single s.c. (in the ventral region at the level of floating ribs) injection (20 μl) of isotonic saline or 2 μg oxytocin (Phoenix Pharmaceuticals. Inc., Catalog No. 051-01) dissolved in isotonic saline (20 μl). […] Following the same protocol, we injected vasopressin (Phoenix Pharmaceuticals. Inc., Catalog No. 065-07) at different doses. At P2, pups were scarified to be genotyped.
The results obtained with the injection of SSR 126768A OTA let us think that we might restore a normal feeding behaviour in Magel2 KO newborns with an OT injection just after birth. Early neonatal manipulation of OT was reported in the literature without alterations of the postnatal development (Cushing, B. S., et Al., 2003; Yamamoto, Y., et al., 2004; Saito, O., et Al., 2007). Initially, 28 wild type newborns were injected with an isotonic saline (20 μl) and 4 of them died at P1. Another cohort of 28 wild type newborns, […] on hypothalamic nuclei one hour after the injection (Cushing, B. S., et Al., 2003; Yamamoto, Y., et al., 2004). We then decided to inject 2 μg of OT in Magel2 KO and wild type newborns, 3 to 5 hours after birth, the time when wild type newborns started to suckle but not the mutant neonates. […] The level of lethality is similar after an injection of saline solution (4/28 dead pups) or oxytocin (3/28 dead pups) and is in the range of lethality normally observed in wild type cohorts. In a second step, ten litters including a total of 37 wild type and 40 Magel2 KO neonates, were injected with an oxytocin solution. At P2, we observed that 95% (35/37) of wild type and 93% (37/40) of Magel2 mutant newborns survived with milk previously detected in their stomach at P1. In parallel, we controlled that the rescue of Magel2 KO neonates was specifically due to the oxytocin injection and not to the injection stress and/or handling of neonates. […]

[2] = test system: wild-type C57Bl6/J newborns; experiment: Injection of SSR126768A (antagonist of the oxytocin receptor) in wild type newborns: feeding and lethality; type: in vivo, mouse
Procedure: A first cohort of C57B16 wild type newborns were removed from their mothers 1-1h30 after their birth and very rapidly were given a single s.c. injection (20 μl) of vehicle control (0.2% ethanol in distilled water) or 3 μg (in 20 μl of 0.2% ethanol in distilled water) of SSR126768A (OTA). […] of C57B16 wild type newborns were injected 12-24 hours after birth. The dose of OTA used was based on previous publications (Serradeil-Le Gal, C., et al., 2004).
We chose to use the Oxytocin antagonist SSR126768A (a gift from C. Serradeil-Le Gal, Sanofi-Synthélabo Recherche, Toulouse, France) because it was already well characterized.
Taking in account all the previous data, we hypothesized that OT deficiency might be responsible for the Magel2 KO phenotype at birth. Consequently, we decided to inject the SSR 126768A compound, a specific OT antagonist (OTA) with high affinity with the OT receptor (Serradeil-Le Gal, C., et al., 2004). We proceeded to a single injection of 3 μg (20 μl) in 68 wild-type C57B16/J newborns (9 litters), 1 to 1.5 hour after birth. In parallel, in the same conditions, we injected the vehicle […] in 48 wild-type C57B16/J newborns (7 litters). Then, 12 (+/−3) hours after the injection time, we observed than 54% (37/68) of newborns injected with OTA had no milk in their stomach versus 4% (2/48) of newborns injected with vehicle. At P1 (24-36 h old), we observed than 48% (33/68) of newborns injected with OTA were dead versus 4% (2/48) of newborns injected with vehicle control. […] Thus, the SSR 126768A OTA at a dose of 3 μg appeared to have a specific effect, preventing the feeding process and leading to death, only when it was injected in a specific window of time after birth, before the suckling activity was initiated. This phenotype simulates the Magel2 KO feeding phenotype at birth.

[3] = test system: OTR; conditions: cited from earlier work
[4] = test system: rats; conditions: cited from earlier work

Row | Compound | rescue of the phenotype of Magel2 deficient neonates [1] | survival 48 hours later ([2]; 3 μg in 20 μl injected 12-24 hours after birth, 42 wild-type pups) | newborns dead at P1 ([2]; single s.c. injection of 3 μg, 1 to 1.5 hour after birth, P1 (24-36 h old), vehicle 4% (2/48)) | newborns with no milk in their stomach ([2]; single s.c. injection of 3 μg, 1 to 1.5 hour after birth, observed 12 (+/−3) hours after injection, vehicle 4% (2/48)) | selectivity [3] | affinity for OTR ([3]; different species, including mouse) | lethality or secondary effect ([4]; 1, 3 or 10 μg/g in rats) | duration of effect on uterus ([4]; after administration of a dose as low as 3 μg/g)
1 | NC(=O)CC[C@@H]1NC(=O)[C@H](Cc2ccccc2)NC(=O)[C@H](Cc2ccc(O)cc2)NC(=O)[C@@H](N)CSSC[C@@H](C(=O)N2CCC[C@H]2C(=O)N[C@@H](CCCN=C(N)N)C(=O)NCC(N)=O)NC(=O)[C@H](CC(N)=O)NC1=O [AVP, Arginine-Vasopressin] | did not rescue the phenotype | – | – | – | – | – | – | –
2 | CCN(Cc1cccnc1)C(=O)c1ccc(Cl)c([C@]2(C)C(=O)N(Cc3ccc(OC)cc3OC)c3ccc(Cl)cc32)c1.Cl [SSR126768A, 4-chloro-3-[(3R)-(+)-5-chloro-1-(2,4-dimethoxybenzyl)-3-methyl-2-oxo-2,3-dihydro-1H-indol-3-yl]-N-ethyl-N-(3-pyridylmethyl)-benzamide, hydrochloride] | – | all of them survived | 48% | 54% | high selectivity | high affinity | without inducing lethality or any strong secondary effect | 24 h
